Reference: PubChem BioAssay (NCI)
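In this assay, cells in 96-well plates receive the compound at five concentrations for 48 hours. Endpoints are linearly interpolated between the surrounding concentrations. The concentration for 50% growth inhibition is given as GI50. TGI denotes the concentration required for complete inhibition of growth.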

Assays:
Assay in all cases: NCI tumour cell line growth inhibition, 48 h; in the data active = GI50 below about 0.43 µM; inactive = the rest
NCI-H460 lung = system: NCI-H460 lung
NCI-H522 lung = system: NCI-H522 lung
OVCAR-4 ovarian = system: OVCAR-4 ovarian
PC-3 prostate = system: PC-3 prostate
M14 melanoma = system: M14 melanoma
OVCAR-3 ovarian = system: OVCAR-3 ovarian
MDA-MB-231 breast = system: MDA-MB-231 breast
UO-31 renal = system: UO-31 renal
SR leukemia = system: SR leukemia
LOX IMVI melanoma = system: LOX IMVI melanoma
U251 CNS = system: U251 CNS
NCI-H226 lung = system: NCI-H226 lung
RXF 393 renal = system: RXF 393 renal
NCI-H23 lung = system: NCI-H23 lung
HT29 colon = system: HT29 colon
786-0 renal = system: 786-0 renal
MCF7 breast = system: MCF7 breast
SK-OV-3 ovarian = system: SK-OV-3 ovarian
MOLT-4 leukemia = system: MOLT-4 leukemia
EKVX NSCLC = system: EKVX NSCLC
HCT-116 colon = system: HCT-116 colon
K-562 leukemia = system: K-562 leukemia
ACHN renal = system: ACHN renal
BT-549 breast = system: BT-549 breast
OVCAR-5 ovarian = system: OVCAR-5 ovarian
SW-620 colon = system: SW-620 colon
SF-539 CNS = system: SF-539 CNS
HCT-15 colon = system: HCT-15 colon
TK-10 renal = system: TK-10 renal
T-47D breast = system: T-47D breast
HOP-92 NSCLC = system: HOP-92 NSCLC
DU-145 prostate = system: DU-145 prostate
OVCAR-8 ovarian = system: OVCAR-8 ovarian
HCC-2998 colon = system: HCC-2998 colon
SK-MEL-28 melanoma = system: SK-MEL-28 melanoma
SF-268 CNS = system: SF-268 CNS
COLO 205 colon = system: COLO 205 colon
KM12 colon = system: KM12 colon
IGROV1 ovarian = system: IGROV1 ovarian
UACC-257 melanoma = system: UACC-257 melanoma
SK-MEL-5 melanoma = system: SK-MEL-5 melanoma
SNB-75 CNS = system: SNB-75 CNS
CAKI-1 renal = system: CAKI-1 renal
CCRF-CEM leukemia = system: CCRF-CEM leukemia
MDA-MB-435 = system: MDA-MB-435
A549 NSCLC = system: A549 NSCLC
RPMI-8226 leukemia = system: RPMI-8226 leukemia
SK-MEL-2 melanoma = system: SK-MEL-2 melanoma
NCI/ADR-RES ovarian = system: NCI/ADR-RES ovarian
SN12C renal = system: SN12C renal
MALME-3M melanoma = system: MALME-3M melanoma
HL-60(TB) leukemia = system: HL-60(TB) leukemia
HS 578T breast = system: HS 578T breast
UACC-62 melanoma = system: UACC-62 melanoma
MDA-N = system: MDA-N
SNB-19 CNS = system: SNB-19 CNS
HOP-62 NSCLC = system: HOP-62 NSCLC
A498 renal = system: A498 renal
SF-295 CNS = system: SF-295 CNS

COC(=O)c1cc(C#Cc2cc(OC)ccc2OC)ccc1OC
> 100 µM: TGI (NCI-H460 lung) | TGI (NCI-H522 lung) | TGI (OVCAR-4 ovarian) | TGI (PC-3 prostate) | TGI (M14 melanoma) | TGI (MDA-MB-231 breast) | TGI (UO-31 renal) | TGI (SR leukemia) | TGI (LOX IMVI melanoma) | TGI (U251 CNS) | TGI (NCI-H226 lung) | TGI (NCI-H23 lung) | TGI (HT29 colon) | TGI (786-0 renal) | TGI (MCF7 breast) | TGI (SK-OV-3 ovarian) | TGI (EKVX NSCLC) | TGI (HCT-116 colon) | TGI (K-562 leukemia) | TGI (ACHN renal) | TGI (BT-549 breast) | TGI (OVCAR-5 ovarian) | TGI (SW-620 colon) | TGI (SF-539 CNS) | TGI (HCT-15 colon) | TGI (TK-10 renal) | TGI (DU-145 prostate) | TGI (OVCAR-8 ovarian) | TGI (HCC-2998 colon) | TGI (SK-MEL-28 melanoma) | TGI (SF-268 CNS) | TGI (KM12 colon) | TGI (IGROV1 ovarian) | TGI (UACC-257 melanoma) | TGI (SNB-75 CNS) | TGI (CAKI-1 renal) | TGI (CCRF-CEM leukemia) | TGI (MDA-MB-435) | TGI (A549 NSCLC) | TGI (SK-MEL-2 melanoma) | TGI (NCI/ADR-RES ovarian) | TGI (SN12C renal) | TGI (MALME-3M melanoma) | TGI (HL-60(TB) leukemia) | TGI (HS 578T breast) | TGI (UACC-62 melanoma) | TGI (MDA-N) | TGI (SNB-19 CNS)
53.1 µM: TGI (SK-MEL-5 melanoma)
77.6 µM: TGI (OVCAR-3 ovarian)
84.1 µM: TGI (RXF 393 renal)
34.5 µM: TGI (T-47D breast)
70 µM: TGI (MOLT-4 leukemia)
52.3 µM: TGI (COLO 205 colon)
41.3 µM: TGI (RPMI-8226 leukemia)
inactive: GI50 (OVCAR-3 ovarian) 13.6 µM | GI50 (HCT-116 colon) 37.7 µM | GI50 (SF-539 CNS) 81.1 µM | GI50 (DU-145 prostate) 43.6 µM | GI50 (CCRF-CEM leukemia) 36.8 µM | GI50 (SN12C renal) 37.9 µM | GI50 (UACC-62 melanoma) 29.3 µM
85.9 µM: TGI (HOP-92 NSCLC)

COc1ccc(CCNC(=O)Cc2cc(OC)c(OC)cc2CO)cc1OC
> 100 µM: TGI (NCI-H460 lung) | TGI (NCI-H522 lung) | TGI (OVCAR-4 ovarian) | TGI (PC-3 prostate) | TGI (M14 melanoma) | TGI (OVCAR-3 ovarian) | TGI (MDA-MB-231 breast) | TGI (UO-31 renal) | TGI (SR leukemia) | TGI (LOX IMVI melanoma) | TGI (U251 CNS) | TGI (NCI-H226 lung) | TGI (RXF 393 renal) | TGI (NCI-H23 lung) | TGI (HT29 colon) | TGI (786-0 renal) | TGI (MCF7 breast) | TGI (SK-OV-3 ovarian) | TGI (MOLT-4 leukemia) | TGI (EKVX NSCLC) | TGI (HCT-116 colon) | TGI (HOP-62 NSCLC) | TGI (K-562 leukemia) | TGI (ACHN renal) | TGI (BT-549 breast) | TGI (OVCAR-5 ovarian) | TGI (SW-620 colon) | TGI (SF-539 CNS) | TGI (A498 renal) | TGI (HCT-15 colon) | TGI (TK-10 renal) | TGI (T-47D breast) | TGI (HOP-92 NSCLC) | TGI (DU-145 prostate) | TGI (OVCAR-8 ovarian) | TGI (HCC-2998 colon) | TGI (SK-MEL-28 melanoma) | TGI (SF-268 CNS) | TGI (COLO 205 colon) | TGI (KM12 colon) | TGI (IGROV1 ovarian) | TGI (UACC-257 melanoma) | TGI (SK-MEL-5 melanoma) | TGI (SNB-75 CNS) | TGI (CAKI-1 renal) | TGI (CCRF-CEM leukemia) | TGI (MDA-MB-435) | TGI (A549 NSCLC) | TGI (RPMI-8226 leukemia) | TGI (SK-MEL-2 melanoma) | TGI (NCI/ADR-RES ovarian) | TGI (SN12C renal) | TGI (HL-60(TB) leukemia) | TGI (HS 578T breast) | TGI (UACC-62 melanoma) | TGI (MDA-N) | TGI (SF-295 CNS)
